The values that follow come from patent publication US9133148B2, “Carbamate compounds and of making and using same” (Abide Therapeutics, Inc., priority 2012, dated 2015).

Type in all cases: biochemical
Assay [1] addresses T1, FAAH (Mus musculus (Mouse), UniProt O08914). As to the kind of experiment: Competitive ABPP, % inhibition at 1 uM, FAAH. The protocol: (§1) In Vitro Competitive Activity-Based Protein Profiling.
Proteomes (mouse brain membrane fraction or cell lysates) ([…], 1.0 mg/mL total protein concentration) were preincubated with varying concentrations of inhibitors at 37° C. After 30 min, FP-Rh (1.0 μL, 50 μM in DMSO) was added and the mixture was incubated for another 30 min at 37° C. Reactions were quenched with SDS loading buffer (50 μL—4×) and run on SDS-PAGE. Following gel imaging, serine hydrolase activity was determined by measuring fluorescent intensity of gel bands corresponding to MAGL, ABHD6 and FAAH using ImageJ 1.43u software.

Assay [2] has as its target T2, MAGL (Mus musculus (Mouse), UniProt O35678). Nature of the assay: Competitive ABPP, % inhibition at 1 uM, MAGL. The protocol:
as §1
(§2) Proteomes (mouse brain membrane fraction or cell lysates) ([…], 1.0 mg/mL total protein concentration) were preincubated with varying concentrations of inhibitors at 37° C. After 30 min, FP-Rh (1.0 μL, 50 μM in DMSO) was added and the mixture was incubated for another 30 min at 37° C. Reactions were quenched with SDS loading buffer (50 μL—4×) and run on SDS-PAGE.

In assay [3] the target is T3, ABHD6 (Mus musculus (Mouse), UniProt Q8R2Y0). As to the kind of experiment: Competitive ABPP, % inhibition at 1 uM, ABHD6. The protocol:
as §1, §2

Assay [4] addresses T2, MAGL. Nature of the assay: In vitro competitive activity-based protein profiling (FP-Rh), mouse MAGL. Particulars: mouse brain membrane proteome, competitive ABPP (Table 7). The protocol:
as §1, §2

In assay [5] the target is T1, FAAH. As to the kind of experiment: In vitro competitive activity-based protein profiling (FP-Rh), mouse FAAH. The settings on record: mouse brain membrane proteome, competitive ABPP (Table 7). The protocol:
as §1, §2

Assay [6] concerns the target T3, ABHD6. As to the kind of experiment: In vitro competitive activity-based protein profiling (FP-Rh), mouse ABHD6. The settings on record: mouse brain membrane proteome, competitive ABPP (Table 7). The protocol: as §1, §2

T1 sequence (O08914 whole entry): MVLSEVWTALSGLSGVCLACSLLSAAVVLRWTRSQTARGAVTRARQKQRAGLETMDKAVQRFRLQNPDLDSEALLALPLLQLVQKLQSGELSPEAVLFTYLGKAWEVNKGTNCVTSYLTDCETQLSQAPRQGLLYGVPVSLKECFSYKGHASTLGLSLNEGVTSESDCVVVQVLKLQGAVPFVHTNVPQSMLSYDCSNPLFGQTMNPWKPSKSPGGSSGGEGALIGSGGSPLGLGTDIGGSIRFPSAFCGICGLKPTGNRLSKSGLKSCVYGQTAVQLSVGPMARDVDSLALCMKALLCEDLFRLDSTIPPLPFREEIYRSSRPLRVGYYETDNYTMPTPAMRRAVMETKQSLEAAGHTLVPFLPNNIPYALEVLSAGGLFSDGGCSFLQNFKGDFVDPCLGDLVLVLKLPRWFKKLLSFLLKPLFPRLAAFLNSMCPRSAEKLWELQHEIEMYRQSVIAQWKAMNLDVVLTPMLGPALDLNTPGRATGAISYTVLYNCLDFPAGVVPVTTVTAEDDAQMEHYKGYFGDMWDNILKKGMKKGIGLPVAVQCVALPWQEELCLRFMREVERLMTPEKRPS
T3 sequence (Q8R2Y0 whole entry): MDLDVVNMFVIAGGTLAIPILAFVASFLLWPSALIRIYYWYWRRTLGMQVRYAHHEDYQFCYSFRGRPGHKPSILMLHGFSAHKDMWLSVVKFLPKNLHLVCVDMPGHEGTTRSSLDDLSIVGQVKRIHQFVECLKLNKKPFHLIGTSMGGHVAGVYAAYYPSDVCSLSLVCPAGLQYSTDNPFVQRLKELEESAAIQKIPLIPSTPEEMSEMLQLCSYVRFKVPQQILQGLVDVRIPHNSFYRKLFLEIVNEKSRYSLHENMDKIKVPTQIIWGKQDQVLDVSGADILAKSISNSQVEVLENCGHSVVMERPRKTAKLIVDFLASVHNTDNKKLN
T2 sequence (O35678 whole entry): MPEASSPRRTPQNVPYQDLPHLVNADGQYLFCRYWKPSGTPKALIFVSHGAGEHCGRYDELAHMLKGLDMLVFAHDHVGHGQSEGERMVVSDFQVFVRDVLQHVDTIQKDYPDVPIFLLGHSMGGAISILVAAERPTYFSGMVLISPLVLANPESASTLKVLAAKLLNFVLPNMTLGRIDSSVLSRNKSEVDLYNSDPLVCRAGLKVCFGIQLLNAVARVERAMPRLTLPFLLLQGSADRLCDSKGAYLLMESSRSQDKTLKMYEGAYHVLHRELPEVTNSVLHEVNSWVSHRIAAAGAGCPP

Broadly, the inhibition is the change of the read-out against control, counted positive when it falls. `CC(C)c1cc(N2CCOCC2)ccc1CN1CCN(C(=O)OC(C(F)(F)F)C(F)(F)F)CC1` [Example 9bc, 1,1,1,3,3,3-hexafluoropropan-2-yl 4-[[4-(morpholin-4-yl)-2-(propan-2-yl)phenyl]methyl]piperazine-1-carboxylate]: the results for the inhibition at 1 µM at FAAH [1], on MAGL [2] and at ABHD6 [3] were under 25%, 25 to 75% and under 25%, respectively.

With `Cc1nc(-c2ccccc2F)ccc1CN1CCN(C(=O)OC(C(F)(F)F)C(F)(F)F)CC1` [Example 11c, 1,1,1,3,3,3-hexafluoropropan-2-yl 4-[[6-(2-fluorophenyl)-2-methylpyridin-3-yl]methyl]piperazine-1-carboxylate], the inhibition at 1 µM on FAAH [1] is under 25%; at MAGL [2], 25 to 75%; at ABHD6 [3], 25 to 75%.

Take `Cc1ncccc1-c1ccc(CN2CCN(C(=O)OC(C(F)(F)F)C(F)(F)F)CC2)c(F)c1` [Example 11t, 1,1,1,3,3,3-hexafluoropropan-2-yl 4-[[2-fluoro-4-(2-methylpyridin-3-yl)phenyl]methyl]piperazine-1-carboxylate]: the values for the inhibition at 1 µM at FAAH [1], on MAGL [2] and on ABHD6 [3] were under 25%, over 75% and 25 to 75%, respectively.

As for `O=C(OC(C(F)(F)F)C(F)(F)F)N1CCN(Cc2cccc(Cl)c2C(=O)N2CCOCC2)CC1` [Example 9bf, 1,1,1,3,3,3-hexafluoropropan-2-yl 4-(3-chloro-2-(morpholine-4-carbonyl)benzyl)piperazine-1-carboxylate], the inhibition at 1 µM at FAAH [1] is under 25%; at MAGL [2], 25 to 75%; at ABHD6 [3], under 25%.

In the case of `Cc1nc(CN2CCN(C(=O)OC(C(F)(F)F)C(F)(F)F)CC2)ccc1-c1cccc(F)c1` [Example 11w, 1,1,1,3,3,3-hexafluoropropan-2-yl 4-[[5-(3-fluorophenyl)-6-methylpyridin-2-yl]methyl]piperazine-1-carboxylate], the inhibition at 1 µM at FAAH [1] was under 25%; on MAGL [2] it was over 75%; on ABHD6 [3] it was 25 to 75%.

With `Cc1cccc(-c2ccc(CN3CCN(C(=O)OC(C(F)(F)F)C(F)(F)F)CC3)c(F)c2)n1` [Example 11ac, 1,1,1,3,3,3-hexafluoropropan-2-yl 4-[[2-fluoro-4-(6-methylpyridin-2-yl)phenyl]methyl]piperazine-1-carboxylate], the inhibition at 1 µM at FAAH [1] was under 25%; at MAGL [2], over 75%; at ABHD6 [3], 25 to 75%.

For the compound `Cc1cc(-c2ccc(CN3CCN(C(=O)OC(C(F)(F)F)C(F)(F)F)CC3)c(C)c2)ccn1` [Example 11i, 1,1,1,3,3,3-hexafluoropropan-2-yl 4-[[2-methyl-4-(2-methylpyridin-4-yl)phenyl]methyl]piperazine-1-carboxylate], the figures for the inhibition at 1 µM on FAAH [1], on MAGL [2] and at ABHD6 [3] were under 25%, 25 to 75% and 25 to 75%, respectively.

In the case of `O=C(OC(C(F)(F)F)C(F)(F)F)N1CCN(Cc2ccc(N3CCOCC3)cc2OC(F)(F)F)CC1` [Example 9ak, 1,1,1,3,3,3-hexafluoropropan-2-yl 4-[[4-(morpholin-4-yl)-2-(trifluoromethoxy)phenyl]methyl]piperazine-1-carboxylate], the inhibition at 1 µM at FAAH [1] was under 25%; at MAGL [2], over 75%; at ABHD6 [3], 25 to 75%.

For `CC1CN(C(=O)OC(C(F)(F)F)C(F)(F)F)CCN1Cc1ccc(-c2ccccc2)cc1` (stereo not drawn) [Example 11a, 1,1,1,3,3,3-hexafluoropropan-2-yl 3-methyl-4-[(4-phenylphenyl)methyl]piperazine-1-carboxylate], the results for the inhibition at 1 µM at FAAH [1], on MAGL [2] and at ABHD6 [3] were under 25%, 25 to 75% and 25 to 75%, respectively.

On to `C[C@@H]1CN(Cc2ccc(N3CCOCC3)cc2F)CCN1C(=O)OC(C(F)(F)F)C(F)(F)F` [Example 9k, 1,1,1,3,3,3-hexafluoropropan-2-yl(2R)-4-[[2-fluoro-4-(morpholin-4-yl)phenyl]methyl]-2-methylpiperazine-1-carboxylate], for which the inhibition at 1 µM on FAAH [1], at MAGL [2] and at ABHD6 [3] was under 25% in each case.

Regarding `C[C@H]1CN(Cc2ccc(N3CCOCC3)cc2Cl)CCN1C(=O)OC(C(F)(F)F)C(F)(F)F` [Example 9al, 1,1,1,3,3,3-hexafluoropropan-2-yl(2S)-4-[[2-chloro-4-(morpholin-4-yl)phenyl]methyl]-2-methylpiperazine-1-carboxylate], the inhibition at 1 µM is under 25% at FAAH [1], 25 to 75% at MAGL [2] and 25 to 75% on ABHD6 [3].

As for `Cc1cc(-c2ccc(CN3CCN(C(=O)OC(C(F)(F)F)C(F)(F)F)CC3)c(F)c2)ccn1` [Example 11g, 1,1,1,3,3,3-hexafluoropropan-2-yl 4-[[2-fluoro-4-(2-methylpyridin-4-yl)phenyl]methyl]piperazine-1-carboxylate], the figures for the inhibition at 1 µM at FAAH [1], on MAGL [2] and on ABHD6 [3] were under 25%, over 75% and over 75%, respectively.

As to `Cc1cc(-c2ccc(CN3CCN(C(=O)OC(C(F)(F)F)C(F)(F)F)CC3)c(C)c2)cc(C)n1` [Example 11m, 1,1,1,3,3,3-hexafluoropropan-2-yl 4-[[4-(2,6-dimethylpyridin-4-yl)-2-methylphenyl]methyl]piperazine-1-carboxylate], the inhibition at 1 µM on FAAH [1] is under 25%; at MAGL [2], 25 to 75%; at ABHD6 [3], 25 to 75%.

In the case of `Cn1ncc2cc(C(c3ccc4c(cnn4C)c3)N3CCN(C(=O)OC(C(F)(F)F)C(F)(F)F)CC3)ccc21` [Example 2k, 1,1,1,3,3,3-hexafluoropropan-2-yl 4-(bis(1-methyl-1H-indazol-5-yl)methyl)piperazine-1-carboxylate], the inhibition at 1 µM on FAAH [1] was under 25%.

As for `C[C@@H]1CN(Cc2ccc(N3CCOCC3)cc2Cl)CCN1C(=O)OC(C(F)(F)F)C(F)(F)F` [Example 9am, 1,1,1,3,3,3-hexafluoropropan-2-yl(2R)-4-[[2-chloro-4-(morpholin-4-yl)phenyl]methyl]-2-methylpiperazine-1-carboxylate], the inhibition at 1 µM at FAAH [1], on MAGL [2] and at ABHD6 [3] was under 25% throughout.

On to `Cc1nc(-c2cccc(F)c2)ccc1CN1CCN(C(=O)OC(C(F)(F)F)C(F)(F)F)CC1` [Example 11e, 1,1,1,3,3,3-hexafluoropropan-2-yl 4-[[6-(3-fluorophenyl)-2-methylpyridin-3-yl]methyl]piperazine-1-carboxylate], for which the inhibition at 1 µM at FAAH [1] was under 25%; at MAGL [2] it was over 75%; on ABHD6 [3] it was 25 to 75%.

As to `O=C(OC(C(F)(F)F)C(F)(F)F)N1CCN(Cc2c(Cl)cccc2N2CCOCC2)CC1` [Example 9ac, 1,1,1,3,3,3-hexafluoropropan-2-yl 4-[[2-chloro-6-(morpholin-4-yl)phenyl]methyl]piperazine-1-carboxylate], at FAAH [1], the inhibition at 1 µM is under 25%.

`O=C(OC(C(F)(F)F)C(F)(F)F)N1CCN(Cc2ccc(Cl)cc2)CC1` [Example 9o, 1,1,1,3,3,3-hexafluoropropan-2-yl 4-(4-chlorobenzyl)piperazine-1-carboxylate] displayed an inhibition at 1 µM on FAAH [1] of under 25%.

For orientation: IC50 means the concentration that inhibits the measured activity by half. A high value points to weaker potency. Consider `CC(=O)N1CCN(c2cc(Cl)ccc2CN2CCN(C(=O)OC(C(F)(F)F)C(F)(F)F)CC2)CC1` [Example 9aw, 1,1,1,3,3,3-hexafluoropropan-2-yl 4-(2-(4-acetylpiperazin-1-yl)-4-chlorobenzyl)piperazine-1-carboxylate], for which the IC50 was 100 to 1000 nM at MAGL [4], over 10000 nM on FAAH [5] and over 1000 nM on ABHD6 [6].

With `CC(C)c1cc(N2CCCC2)ccc1CN1CCN(C(=O)OC(C(F)(F)F)C(F)(F)F)CC1` [Example 9au, 1,1,1,3,3,3-hexafluoropropan-2-yl 4-(2-isopropyl-4-(pyrrolidin-1-yl)benzyl)piperazine-1-carboxylate], the figures for the IC50 on MAGL [4], at FAAH [5] and at ABHD6 [6] were over 1000 nM, over 10000 nM and over 1000 nM, respectively.

Turning to `O=C(OC(C(F)(F)F)C(F)(F)F)N1CCN(Cc2ccc(Cl)cc2-n2cc(Cl)cn2)CC1` [Example 9ai, 1,1,1,3,3,3-hexafluoropropan-2-yl 4-(4-chloro-2-(4-chloro-1H-pyrazol-1-yl)benzyl)piperazine-1-carboxylate], the IC50 on MAGL [4] was under 100 nM; at FAAH [5], over 10000 nM; at ABHD6 [6], 100 to 1000 nM.

As for `CC(=O)N[C@@H]1CCN(c2cc(Cl)ccc2CN2CCN(C(=O)OC(C(F)(F)F)C(F)(F)F)CC2)C1` [Example 9ba, (R)-1,1,1,3,3,3-hexafluoropropan-2-yl 4-(2-(3-acetamidopyrrolidin-1-yl)-4-chlorobenzyl)piperazine-1-carboxylate], the IC50 at MAGL [4] was under 100 nM; at FAAH [5] it was over 10000 nM; on ABHD6 [6] it was over 1000 nM.

`COc1ccc(CN2CCN(C(=O)OC(C(F)(F)F)C(F)(F)F)CC2)cc1` [Example 9v, 1,1,1,3,3,3-hexafluoropropan-2-yl 4-(4-methoxybenzyl)piperazine-1-carboxylate]: the IC50 was under 100 nM at MAGL [4], over 6250 nM at FAAH [5] and 100 to 1000 nM at ABHD6 [6].
